Among the data in ChEMBL document CHEMBL1154579, “Novel cytotoxic diterpenes from Casearia arborea” (J Nat Prod, 2000) are IC50 values, retold here.

pIC50: −log10 of the molar value.

The test system of one test is SF-539. Kind of test: Cytotoxicity against human SF539 cells after 2 days. Type of test: functional, cell-based. The conditions noted are these: SF-539, 48 h.
The next test has as its system LOX IMVI. Kind of test: Cytotoxicity against human LOX IMVI cells after 2 days. Type of test: functional, cell-based. To be noted: 48 h.

A word on the pIC50: it is the IC50 on a negative log10 scale, so that one unit is a factor of ten. With `C=C/C(C)=C/C[C@]1(C)[C@H](C)CC[C@@]23C(=C[C@H](OC(=O)c4ccc(O)cc4)C[C@@H]12)[C@@H](OC(C)=O)O[C@H]3OC(C)=O` [CASEARBORIN A], the negative logarithm of the IC50 (pIC50) in the test on SF-539 and with LOX IMVI was 6.54 in each case.
`C=C/C(C)=C/C[C@]1(C)[C@H](C)CC[C@@]23C(=C[C@H](OC(=O)c4ccc(O)c(OC)c4)C[C@@H]12)[C@@H](OC(C)=O)O[C@H]3OC(C)=O` [CASEARBORIN B]: the pIC50 in the test with SF-539 and with LOX IMVI was 6.54 in each case.
As for `C=C/C(C)=C/C[C@]1(C)[C@H](C)C[C@H](OC(=O)c2ccc(O)cc2)[C@@]23C(=C[C@H](O)C[C@@H]12)[C@@H](OC(C)=O)O[C@H]3OC(C)=O` [CASEARBORIN C], the pIC50 in the test with SF-539 and in the test on LOX IMVI was 6.54 throughout.
With `C=C/C(C)=C/C[C@]1(C)[C@H](C)C[C@H](O)[C@@]23C(=C[C@H](OC(=O)c4ccc(O)cc4)C[C@@H]12)[C@@H](OC(C)=O)O[C@H]3OC(C)=O` [CASEARBORIN D], the pIC50 in the test on SF-539 and with LOX IMVI was 6.54 throughout.
Turning to `C=C/C(C)=C/C[C@]1(C)[C@H](C)C[C@H](OC(=O)c2ccc(O)cc2)[C@@]23C(=C[C@H](OC(C)=O)C[C@@H]12)[C@@H](OC(C)=O)O[C@H]3OC(C)=O` [CASEARBORIN E], the negative logarithm of the IC50 (pIC50) with SF-539 and in the test on LOX IMVI was 6.54 in each case.
